Measurements as given in US20210220379A1, “PERITONEAL SODIUM-GLUCOSE TRANSPORTER (SGLT) INHIBITORS FOR IMPROVEMENT OF PERITONEAL DIALYSIS” (MOR RESEARCH APPLICATIONS LTD., priority 2017, published 2021).

Assays:
[1] = system: peritoneal glucose transport; test: Blood glucose in healthy CD-1 mice after intraperitoneal glucose-containing PD fluid; type: in vivo; conditions: inhibitor given 15 min before intraperitoneal PD fluid, results not shown
Description: (§1) Dapagliflozin (0.1 mg/kg) was given to the mice by oral gavage. Control mice were not given any of the SGLT blockers. Tail blood glucose was tested by glucose test meter immediately before (time 0) and during 2 hours after injection. Glucose levels in the urine were tested by standard urine sticks (Multistix® 10 SG, Siemens Healthcare Diagnostics, Tarrytown, N.Y.).

[2] = system: glucose absorption from peritoneal fluid; test: Uremic rat peritoneal dialysis model: PDF with or without phlorizin; type: in vivo, Sprague Dawley (SD) rats; conditions: uremic SD rats, 120 min dwell
Description: (§2) Renal failure in mice and rats was induced by bilateral ureteral ligation, based on the procedure described, for example, in Kim et al. (2015) (Am J Physiol Renal Physio., 308(2):F131-139) and references cited therein. Briefly, mice were anesthetized with an intraperitoneal injection of a cocktail containing ketamine (200 mg/kg body weight) and xylazine (16 mg/kg body weight). After exposure of both the left and right kidneys through flank incision, right and left ureters were ligated completely near the kidney pelvis using a 5-0 silk tie.
Animal experiments were approved by local Animal Care Committee. Male Sprague Dawley (SD) rats 200-250 gr, we purchased from Envigo RMS (Jerusalem, Israel), allowed to acclimatize for 1 week before the beginning of the experiment. Animals were anesthetized by intramuscular administration of a mixture of ketamine (200 mg/kg body wt) and xylazine (16 mg/kg body wt). Renal failure was induced by bilateral ureteral ligation as described in Materials and Methods. […] After anesthesia temporary catheters were introduced into the peritoneal cavity.
To PDF of both group 100 μl of fluorescein isothiocyanate-dextran was added, average molecular weight 2,000,000 (FITC Dextran −2000, 100 μg/ml, Sigma-Aldrich®, Israel). Dialysate and tail blood samples were obtained during 120 min dwell, every 15 min. Blood glucose level was measured by standard glucometer, dialysate glucose was measured in the chemistry laboratory of the Soroka Medical Center. Dilution of FITC-dextran was detected by florescence of dialysis fluid samples measured with a 96-well fluorimeter (SpectraMax® Paradigm® plate reader, Molecular Devices) at an emission wavelength of 535 nm and an excitation wavelength of 485 nm. Concentrations of unknown samples were calculated from a standard curve by extrapolation in a linear regression model.

[3] = system: kidney glucose reabsorption; test: Glycosuria by urine stick in healthy CD-1 mice after an SGLT inhibitor; type: in vivo; conditions: phlorizin 20 mg/kg single SC injection
Description: as §1

[4] = system: peritoneal glucose transport; test: Uremic mice: phlorizin-containing peritoneal dialysis fluid (PPDF) intraperitoneally; type: in vivo; conditions: uremic CD-1 mice; 2 ml Dianeal 1.5% dextrose with 0.6 μM phlorizin (PPDF) i.p.; compared with separate applications of phlorizin and PDF; P<0.01 vs phlorizin-free PDF
Description: as §2
Blood glucose levels were measured by glucometer at indicated time points, and area under the curve (AUC) was calculated for all mice and used to compare the two groups (FIG. 5C; P<0.01).

[5] = system: peritoneal glucose transport; test: Renal failure mice: SC phlorizin followed by intraperitoneal PDF; type: in vivo; conditions: renal failure CD-1 mice, phlorizin 20 mg/kg SC
Description: as §2
A standard commercial PD fluid (Dianeal® 1.5% dextrose), diluted 1:4 in saline (comprising 0.375% glucose) was used. Blood glucose levels were measured by glucometer at indicated time points. Area under the curve (AUC) was calculated for all mice and used to compare the two groups. Concentrations of glucose in the peritoneum fluid measured 30 min after administration of PDF are depicted in FIG. 3C.

[6] = system: peritoneal glucose transport; test: Renal failure mice: SC phlorizin followed by sodium-free PDF; type: in vivo; conditions: renal failure CD-1 mice; phlorizin 20 mg/kg SC; sodium free PDF 2 ml, 0.375% glucose
Description: as §2
Dependency of glucose transport on SGLT inhibition during peritoneal dialysis with PDF not containing sodium was assessed.

SMILES: O=C(CCc1ccc(O)cc1)c1c(O)cc(O)cc1O[C@@H]1O[C@H](CO)[C@@H](O)[C@H](O)[C@H]1O [phlorizin, phloretin-2′-β-D-glucopyranoside]
- Blood glucose levels vs control group [1]: significantly lower
- Blood glucose levels vs control group ([2]; 20 ml PDF (1.5% Dianeal diluted 1:4) with phlorizin 100 μg/ml, P<0.01): Significantly lower
- FITC-dextran concentration in PDF (dilution) vs control ([2]; PDF with phlorizin 100 μg/ml, P<0.05): significant diluted
- PDF (dialysate) glucose level vs control group ([2]; PDF with phlorizin 100 μg/ml, p<0.001): significant declined
- Duration of glycosuria [3]: more than 2 hours
- Glucose levels in urine (glycosuria score, urine stick) ([3]; dapagliflozin 0.1 mg/kg oral gavage): significant glycosuria
- Reduction of blood glucose levels (AUC) [4]: significantly more effective
- Blood glucose levels and AUC vs saline control ([5]; 2 ml Dianeal 1.5% dextrose diluted 1:4 (0.375% glucose) i.p., P<0.05): mitigated hyperglycemia
- Glucose levels in peritoneum fluid vs control ([5]; 30 minutes from instillation of PDF): significantly elevated
- Blood glucose levels vs control group [6]: no differences
